Assay [1] concerns the target T1, CYP3A4 (Homo sapiens, UniProt P08684). The assay is described as follows: Determination of IC50 against CYP3A4 by measurement of inhibition of midazolam metabolism (human liver microsomes, 1-hydroxymidazolam by LC-MS/MS). The format is biochemical. More on the design: 0.1 mg/mL human liver microsomes. The note with it: 2 μM midazolam, 0.1 mg/mL human liver microsomes. As to the method:
3. Determination of IC50 Against CYP3A4 by Measurement of Inhibition of Midazolam Metabolism
This assay was performed using a standard 96 well plate design. […] The incubation substrate mix contains 2 μM midazolam, 0.1 mg/mL human liver microsomes, 1 mM NADPH, and potassium phosphate buffer (100 mM, pH 7.4). Quantitation of metabolite peak area ratio against internal standard is determined by LC-MS/MS analysis. The production of 1-hydroxymidazolam from midazolam metabolism is determined after incubation for eight minutes by comparison to a standard curve generated for the metabolite.
Samples were analyzed in the MRM mode using a Sciex API 3000 mass spectrometer (Applied Biosystems, Foster City, Calif.) with a Paradigm MS4 binary pump (Michrom BioResources Inc., Auburn, Calif.) and a LEAP CTC PAL autosampler (LEAP Technologies, Carrboro, N.C.). A Phenomenex Synergi, 4μ, Polar-RP, 10×2.0 mm column (Phenomenex, Torrance, Calif.) was used for separation with a mobile phase composition of: 0.1% formic acid in water (A) and: 0.1% formic acid in methanol (B). The following gradient was used: […]
The sample injection volume was 10 μL and flow was split post-column with 0.4 mL/min going to the mass spectrometer. Analysis was performed using the following API 3000 mass spectrometer settings: […]

Assay [2] addresses T1, CYP3A4. Put plainly: Determination of compound Kiapp against recombinant CYP3A4 enzyme (BFC fluorescent substrate). The format is biochemical. As to the method: 1. Determination of compound Kiapp
A determination of the Kiapp of the compounds of the invention against recombinant CYP3A4 enzyme was performed as follows. The assay was performed in a 100 mM sodium phosphate buffer pH 7.0, 5 mM TCEP and containing 2% dimethylformamide (final concentration) upon addition of substrate and inhibitor. A typical reaction for the determination of Kiapp values was carried at room temperature in a solid black Costar u-bottom 96-well polypropylene plate. In each well, recombinant CYP3A4 enzyme (5.5 nM or 8 nM, final concentration depending on the commercial source of the enzyme) was pre-incubated in the presence of the inhibitor for at least 30 minutes in the assay buffer. When pre-incubation was completed (˜30 min), the reaction was initiated by adding NADPH (200 uM, final concentration), and 7-benzyloxy-4-(trifluoromethyl)-coumarin (BFC) (5 uM, final concentration). The oxidation of the coumarin substrate was recorded by a 96-well plate reader POLARstar (BMG LABTECH, Offenburg, Germany).
The initial reaction velocities were measured during the first 5 min of the reaction when the release of the fluorescent product is linear with time, in the absence and in the presence of various concentrations of inhibitors. For non-partial & partial inhibitors, the Kiapp values were determined by using the equation for tight-binding inhibitor developed by Morrison, J F (Morrison J F. Biochim Biophys Acta. 1969, 185: 269-86) and by Szedlaseck S E et al. (Szedlascek, S. E., Ostafe, V., Serban, M., and Vlad, M.O. Biochem. J. 1988, 254:311-312), respectively.
The fluorescent substrate BFC was purchased from Sigma (St Louis, Mo.). Two commercial sources of recombinant enzymes were used in this study: recombinant CYP3A4−b5 enzyme (Baculosomes®) was purchased from Invitrogen (Carlsbad, Calif.) and the recombinant CYP3A4+b5 enzyme (Supersomes®) was purchased from BD Biosciences (Woburn, Mass.).

Where [3] appears, read: Baculo. enzyme preparation, read-out: Kiapp (BFC, Baculo.).
The mark [4] stands for this setting: Super. enzyme preparation, read-out: Kiapp (BFC, Super.).

Where two headings read alike, the source gives them in different places.

T1 sequence (P08684 whole entry): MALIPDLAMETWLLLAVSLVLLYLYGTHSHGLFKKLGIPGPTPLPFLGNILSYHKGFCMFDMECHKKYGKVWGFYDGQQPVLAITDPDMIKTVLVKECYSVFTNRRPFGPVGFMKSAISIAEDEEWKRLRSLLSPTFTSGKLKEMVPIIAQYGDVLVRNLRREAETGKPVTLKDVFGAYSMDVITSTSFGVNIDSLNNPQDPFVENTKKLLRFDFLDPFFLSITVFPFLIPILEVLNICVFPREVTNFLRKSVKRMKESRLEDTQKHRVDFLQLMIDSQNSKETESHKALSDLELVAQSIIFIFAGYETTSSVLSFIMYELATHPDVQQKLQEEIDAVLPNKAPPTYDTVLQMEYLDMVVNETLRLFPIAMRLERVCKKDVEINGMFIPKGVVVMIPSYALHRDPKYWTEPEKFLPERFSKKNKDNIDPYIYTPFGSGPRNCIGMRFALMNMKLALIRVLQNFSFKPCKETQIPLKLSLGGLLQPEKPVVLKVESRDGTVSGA

In general, IC50 refers to the concentration that inhibits the measured activity by half. For the compound `CCOc1ccncc1NS(=O)(=O)c1ccccc1C(=O)N(C)Cc1ccccc1F` [Example 124, 2-{[(4-ethoxypyridin-3-yl)amino]sulfonyl}-N-(2-fluorobenzyl)-N-methylbenzamide], the 50% inhibitory concentration (IC50) at CYP3A4 [1] is 14 nM. The Ki was 136 nM at CYP3A4 [2] (setting [3]) and 18 nM on CYP3A4 [2] (setting [4]).
For `COc1cncc(NS(=O)(=O)c2ccccc2C(=O)NCc2ccc(Cl)c(F)c2)c1` [Example 132, N-(4-chloro-3-fluorobenzyl)-2-{[(5-methoxypyridin-3-yl)amino]sulfonyl}benzamide], at CYP3A4 [1], the IC50 was found to be 8 nM. Also, the Ki on CYP3A4 [2] (setting [3]) was found to be 40.6 nM; at CYP3A4 [2] (setting [4]), 8.4 nM.
The matching figures for `CCOc1ccncc1NS(=O)(=O)c1ccccc1C(=O)N(C)Cc1ccc(F)cc1` [Example 142, 2-{[(4-ethoxypyridin-3-yl)amino]sulfonyl}-N-(4-fluorobenzyl)-N-methylbenzamide]: 26 nM, 111 nM and 11.8 nM.
In the case of `COc1cncc(NS(=O)(=O)c2ccccc2C(=O)NCc2cc(F)ccc2F)c1` [Example 147, N-(2,5-difluorobenzyl)-2-{[(5-methoxypyridin-3-yl)amino]sulfonyl}benzamide], the IC50 on CYP3A4 [1] came to 16 nM. Further, the Ki stood at 209 nM on CYP3A4 [2] (setting [3]) and 19.2 nM on CYP3A4 [2] (setting [4]).
The matching figures for `CCCN(C(=O)c1ccccc1S(=O)(=O)Nc1cncc(OC)c1)C(C)C` [Example 100, N-isopropyl-2-{[(5-methoxypyridin-3-yl)amino]sulfonyl}-N-propylbenzamide]: 14 nM, 88.3 nM and 35.7 nM.
The matching figures for `CCOc1ccncc1NS(=O)(=O)c1ccccc1C(=O)N(C)Cc1cccc(F)c1` [Example 103, 2-{[(4-ethoxypyridin-3-yl)amino]sulfonyl}-N-(3-fluorobenzyl)-N-methylbenzamide]: 21 nM, 129 nM and 26 nM.
With `O=C(NCc1ccc(F)c(F)c1)c1ccccc1S(=O)(=O)Nc1cncc(OCc2ccccc2)c1` [Example 393, 2-({[5-(benzyloxy)pyridin-3-yl]amino}sulfonyl)-N-(3,4-diflorobenzyl)benzamide], the half-maximal inhibitory concentration (IC50) on CYP3A4 [1] was 8 nM.
As for `COc1cncc(NS(=O)(=O)c2ccccc2C(=O)NCC(F)(F)C(F)(F)C(F)(F)F)c1` [Example 131, N-(2,2,3,3,4,4,4-heptafluorobutyl)-2-{[(5-methoxypyridin-3-yl)amino]sulfonyl}benzamide], at CYP3A4 [1], the half-inhibitory concentration (IC50) is more than 750 nM. Also, the Ki on CYP3A4 [2] (setting [3]) is more than 1000 nM; on CYP3A4 [2] (setting [4]), 329 nM.
`COc1ccncc1NS(=O)(=O)c1ccccc1C(=O)N(C)Cc1ccc(F)cc1` [Example 143, N-(4-fluorobenzyl)-2-{[(4-methoxypyridin-3-yl)amino]sulfonyl}-N-methylbenzamide]: the concentration for half-maximal inhibition (IC50) at CYP3A4 [1] came out at 58 nM. The Ki at CYP3A4 [2] (setting [3]) came to 169 nM; on CYP3A4 [2] (setting [4]), 29 nM.
Take `COc1cncc(NS(=O)(=O)c2ccccc2C(=O)N(CCO)C(C)C)c1` [Example 98, N-(2-hydroxyethyl)-N-isopropyl-2-{[(5-methoxypyridin-3-yl)amino]sulfonyl}benzamide]: on CYP3A4 [1], the half-inhibitory concentration (IC50) was determined as 51 nM. The values for the Ki at CYP3A4 [2] (setting [3]) and on CYP3A4 [2] (setting [4]) were 506 nM and 196 nM, respectively.
The matching figures for `COc1ccccc1CNC(=O)c1ccccc1S(=O)(=O)Nc1cncc(C)c1` [Example 93, N-(2-methoxybenzyl)-2-{[(5-methylpyridin-3-yl)amino]sulfonyl}benzamide]: 10 nM, 166 nM and 14.7 nM.
The matching figures for `CCC(C)CNC(=O)c1ccccc1S(=O)(=O)Nc1cnccc1OC` (stereo not drawn) [Example 116, 2-{[(4-methoxypyridin-3-yl)amino]sulfonyl}-N-(2-methylbutyl)benzamide]: 33 nM, 317 nM and 50.9 nM.
The matching figures for `CCOc1ccncc1NS(=O)(=O)c1ccccc1C(=O)N[C@H](C)C(C)C` [Example 110, N-[(1R)-12-dimethylpropyl]-2-{[(4-ethoxypyridin-3-yl)amino]sulfonyl}benzamide]: 26 nM, 156 nM and 50.4 nM.
For the compound `CCOc1ccncc1NS(=O)(=O)c1ccccc1C(=O)NCC(C)CC` (stereo not drawn) [Example 115, 2-{[(4-ethoxypyridin-3-yl)amino]sulfonyl}-N-(2-methylbutyl)benzamide], at CYP3A4 [1], the 50% inhibitory concentration (IC50) was found to be 23 nM. For the same compound, the Ki at CYP3A4 [2] (setting [3]) amounted to 124 nM; at CYP3A4 [2] (setting [4]), 26 nM.
The matching figures for `Cc1cncc(NS(=O)(=O)c2ccccc2C(=O)NCc2ccc(C#N)cc2Cl)c1` [Example 91, N-(2-chloro-4-cyanobenzyl)-2-{[(5-methylpyridin-3-yl)amino]sulfonyl}benzamide]: 18 nM, 58 nM and 17.2 nM.
The matching figures for `CN(Cc1ccc(F)cc1)C(=O)c1ccccc1S(=O)(=O)Nc1cccnc1` [Example 141, N-(4-fluorobenzyl)-N-methyl-2-[(pyridin-3-ylamino)sulfonyl]benzamide]: 36 nM, 172 nM and 21.1 nM.
The matching figures for `COc1ccncc1NS(=O)(=O)c1ccccc1C(=O)N(C)Cc1ccc(C(F)(F)F)cc1` [Example 123, 2-{[(4-methoxypyridin-3-yl)amino]sulfonyl}-N-methyl-N-[4-(trifluoromethyl)benzyl]benzamide]: 10 nM, 72.5 nM and 15.2 nM.
For `COc1ccncc1NS(=O)(=O)c1ccccc1C(=O)N(C)Cc1cccc(F)c1` [Example 104, N-(3-fluorobenzyl)-2-{[(4-methoxypyridin-3-yl)amino]sulfonyl}-N-methylbenzamide], on CYP3A4 [1], the IC50 came out at 35 nM. Moreover, the Ki amounted to 141 nM on CYP3A4 [2] (setting [3]) and 23.5 nM on CYP3A4 [2] (setting [4]).
The matching figures for `COc1cncc(NS(=O)(=O)c2ccccc2C(=O)NCc2c(Cl)cccc2Cl)c1` [Example 133, N-(2,6-dichlorobenzyl)-2-{[(5-methoxypyridin-3-yl)amino]sulfonyl}benzamide]: 18 nM, 67.8 nM and 11.6 nM.
The matching figures for `CCC(C)(C)NC(=O)c1ccccc1S(=O)(=O)Nc1cnccc1OC` [Example 106, N-(1,1-dimethylpropyl)-2-{[(4-methoxypyridin-3-yl)amino]sulfonyl}benzamide]: 51 nM, 345 nM and 87.5 nM.
For `COc1ccncc1NS(=O)(=O)c1ccccc1C(=O)N(C)Cc1ccccc1F` [Example 125, N-(2-fluorobenzyl)-2-{[(4-methoxypyridin-3-yl)amino]sulfonyl}-N-methylbenzamide], the half-maximal inhibitory concentration (IC50) at CYP3A4 [1] came out at 20 nM. Moreover, the results for the Ki at CYP3A4 [2] (setting [3]) and at CYP3A4 [2] (setting [4]) were 185 nM and 31.2 nM, respectively.
The matching figures for `CCN(C(=O)c1ccccc1S(=O)(=O)Nc1cncc(OC)c1)C(C)C` [Example 109, N-ethyl-N-isopropyl-2-{[(5-methoxypyridin-3-yl)amino]sulfonyl}benzamide]: 35 nM, 213 nM and 37.2 nM.
As to `Nc1cncc(NS(=O)(=O)c2ccccc2C(=O)NCc2ccc(F)c(F)c2)c1` [Example 117, 2-{[(5-aminopyridin-3-yl)amino]sulfonyl}-N-(34-difluorobenzyl)benzamide], the half-inhibitory concentration (IC50) on CYP3A4 [1] is 20 nM. Further, the Ki at CYP3A4 [2] (setting [3]) is 159 nM; at CYP3A4 [2] (setting [4]), 14.8 nM.
With `CN(c1cccnc1)S(=O)(=O)c1ccccc1C(=O)NCc1ccc(F)c(F)c1` [Example 327, N-(3,4-difluorobenzyl)-2-{[methyl(pyridin-3-yl)amino]sulfonyl}benzamide], the Ki on CYP3A4 [2] (setting [3]) is 86.4 nM; on CYP3A4 [2] (setting [4]), 19.8 nM.

The values above are taken from patent US7868026B2, “Therapeutic compounds” (Pfizer Inc., priority 2005, dated 2011).
